Reference: patent publication US9387261B2, “Immunoconjugates targeting CD138 and uses thereof” (priority 2007, dated 2016)
Entries after “also recorded” stand apart in the source; their conditions may differ.

Legend:
[1] = higher; cited from earlier work
[2] = test system: MOLP-8 human multiple myeloma xenografts; assay: MOLP-8 xenograft mouse experiments A, Part I (single bolus i.v. injection); format: in vivo, CB.17 SCID mice; details: for effect on tumor growth compared with PBS-treated animals: single i.v. bolus, 250 μg/kg maytansinoid (nBT062 antibody […])
Method: In these mice, subcutaneous tumors were established (female CB.17 SCID mice) by inoculation with MOLP-8 cell suspensions. Treatment with a single bolus intravenous injection was conducted when tumor volumes reached an average 113 mm^3. Changes in tumor volume and body weight were monitored twice per week.
Female CB.17 SCID mice, five weeks old, were obtained from Charles River Laboratories.
MOLP-8, a human multiple myeloma cell line, was supplied from ATCC.
Each mouse was inoculated with 1×10^7 MOLP-8 cells subcutaneously into the area under the right shoulder. The total volume was 0.2 ml per mouse, in which the ratio of serum-free medium to matrigel (BD Bioscience, Bedford, Mass.) was 1/1 (v/v). Prior to treatment, the xenograft tumors were monitored daily and were allowed to become established.
Eleven days after tumor cell inoculation, 42 mice were selected based on tumor volumes and body weights. […] The forty-two mice were randomly divided into seven groups (A-G) of six animals each based on tumor volume.
Each of six mice in Group A received 200 μl of PBS as vehicle control.
All agents were intravenously administered as a single bolus injection through a lateral tail vein with a 1 ml syringe fitted with a 27 gauge, ½ inch needle.

MOLP-8 tumor xenografts = assay: Bulky MOLP-8 tumor model, Part II / xenograft mouse experiments B (TGD, log cell kill); format: in vivo, SCID mice; details: 450 μg/kg dose; mean time to reach 160 mm^3 minus control
Method: In a second set of experiments, MOLP-8 cells (1.5×10^7 cells per mouse), suspended in a 50:50 mixture of serum free media and matrigel were injected subcutaneously in the area under the right shoulder in 100 μl. Tumor volumes reached about 80 mm^3 at day 11 and the mean of the controls was about 750 mm^3 at day 25, post cell inoculation. […] Each mouse in the control group (n=6) received 0.2 ml of sterile PBS administered into the lateral tail vein (i.v.) in a bolus injection. All treatment doses were based on conjugated maytansinoid. […] Mice were randomized into eleven groups (n=6) by tumor volume using the LabCat Program. The tumor volumes ranged from 40.0 to 152.5 mm^3. The mice were dosed based on the individual body weight.
Tumor size was measured twice per week in three dimensions using the LabCat System (Tumor Measurement and Tracking, Innovative Programming Associated, Inc., Princeton, N.J.).
In this set of experiments, eighty-five mice were inoculated with MOLP-8 cells (1.5×10^7 cells/mouse) subcutaneously in the right shoulder. […] Sixty-six SCID mice bearing bulky MOLP-8 tumors with a mean tumor volume of about 80 mm^3 were randomized into eleven treatment groups (n=6).

Question: With `COc1cc2cc(c1Cl)N(C)C(=O)C[C@H](OC(=O)[C@H](C)N(C)C(C)=O)[C@]1(C)O[C@H]1[C@H](C)[C@@H]1C[C@@](O)(NC(=O)O1)[C@H](OC)/C=C/C=C(\C)C2` [maytansine] as the compound, how does the “cytotoxicity relative to anti-cancer drugs affecting tubulin polymerization (Vinca alkaloids, taxol)” value [1] read?
Answer: Its value is 200-1000 fold.

Question: With “B-B4-SPP-DM1: conjugate of the murine parental antibody B-B4 with DM1 via SPP linker” as the compound, how does the “effect on tumor growth compared with PBS-treated animals” value [2] read?
Answer: Its value is “marked delay in tumor growth”.

Question: What about the “homogeneity of anti-tumor activity in individual mice” value ([2]; single i.v. dose 250 μg/kg, FIG. 9) of the same compound?
Answer: The value was “more heterogeneously; also recorded: high binding variation”.

Question: Which results are given for nBT062?
Answer: effect on tumor growth compared with PBS-treated animals [2]: did not cause any significant inhibition of tumor growth; effect on tumor growth compared with PBS-treated animals ([2]; listed as huBT062): no significant impact on tumor growth

Question: Which “TGD (days), tumor growth delay” value (MOLP-8 tumor xenografts) does the source give for “nBT062-DM1: nBT062 conjugate with DM1, linker not stated; TGD of 18 days matches nBT062-SMCC-DM1” here?
Answer: The value was 18 days.
